According to patent US20090215758A1, “Use of 2,5-Disubstituted Thiazol-4-One Derivatives in Drugs” (Gruenenthal GmbH, priority 2005, published 2009):
pEC50: −log10 of the molar value. Where a name gives a salt, the structure may show the parent alone.

Experiments:
[1] = molecular target: T1, vanilloid receptor 1 (VR1/TRPV1) of the rat species (Rattus norvegicus, UniProt O35433); assay: Functional study on vanilloid receptor 1, FLIPR Ca2+ assay in rat dorsal root ganglia cells; type: cell-based; settings: for inhibition at 10 µM / activation at 10 µM / VR1 (rat) (% inhibition compared to 10 μM CP) / VR1 (rat) (% stimulation compared to 10 μM CP): test compound 10 μM; for inhibition at 10 µM / VR1 (rat) (% inhibition compared to 10 μM CP): 5 min incubation, then 100 nM capsaicin, relative to maximum inhibition with 10 μM capsaicin; for inhibition at 10 µM: read-out: VR1 (rat) (% inhibition compared to 10 μM CP); for activation at 10 µM / VR1 (rat) (% stimulation compared to 10 μM CP): Ca2+ signal relative to 10 μM capsaicin (CP); for activation at 10 µM: read-out: VR1 (rat) (% stimulation compared to 10 μM CP); for pEC50: unit inferred
T1 construct: The spinal column is removed from beheaded rats; from tissue; host or cells: primary cells from rat dorsal root ganglia (DRGs)
Protocol: The agonistic or antagonistic action of the substances to be studied on the vanilloid receptor 1 (VR1/TRPV1) of the rat species can be determined with the following assay. In this assay, the Ca^2+ current through the receptor channel is quantified with the aid of a Ca^2+-sensitive dye (Fluo-4 type, Molecular Probes Europe BV, Leiden the Netherlands) in a fluorescent imaging plate reader (FLIPR, Molecular Devices, Sunnyvale, USA).
Complete medium: 50 ml HAMS F12 Nutrient Mixture (Gibco Invitrogen GmbH, Karlsruhe, Germany) with 10% by volume of FCS (fetal calf serum, Gibco Invitrogen GmbH, Karlsruhe, Germany, heat-inactivated);
2 mM L-glutamine (Sigma, Munich, Germany);
1% by weight of AA solution (antibiotic/antimycotic solution, PAA, Pasching, Austria) and 25 ng/ml of NGF medium (2.5 S, Gibco Invitrogen GmbH, Karlsruhe, Germany)
Cell culture plate: poly-D-lysine-coated, black 96-hole plates with a clear bottom (96 well black/clear plate, BD Biosciences, Heidelberg, Germany) are additionally coated with laminin (Gibco Invitrogen GmbH, Karlsruhe, Germany) by diluting laminin to a concentration of 100 μg/ml with PBS (Ca—Mg-free PBS, Gibco Invitrogen GmbH, Karlsruhe, Germany). Aliquots having a concentration of 100 μg/ml of laminin are withdrawn and stored at −20° C. The aliquots are diluted with PBS in a ratio of 1:10 to 10 μg/ml of laminin and in each case 50 μl of the solution are pipetted into a well of the cell culture plate. The cell culture plates are incubated at 37° C. for at least two hours, the supernatant solution is removed by suction and the wells are each washed twice with PBS. The coated cell culture plates are stored with supernatant PBS which is not removed until directly before the application of the cells.
The spinal column is removed from beheaded rats and placed directly into cold HBSS buffer (Hank's buffered saline solution, Gibco Invitrogen GmbH, Karlsruhe, Germany), i.e. placed in an ice bath, which has been admixed with 1% by volume of an AA solution (antibiotic/antimycotic solution, PAA, Pasching, Austria). The spinal column is severed longitudinally and removed from the spinal canal together with fasciae. Subsequently, the dorsal root ganglia (DRGs) are removed and in turn stored in cold HBSS buffer admixed with 1% by volume of an AA solution. The DRGs freed completely of blood residues and spinal nerves are in each case transferred to 500 μl of cold type 2 collagenase (PAA, Pasching, Austria) and incubated at 37° C. for 35 minutes. […] After complete incubation, the enzyme solution is cautiously pipetted off and the remaining DRGs are each suspended with 500 μl of complete medium.
The DRGs are each suspended repeatedly, drawn through cannulas No. 1, No. 12 and No. 16 by means of a syringe and transferred to 50 ml Falcon tubes which are made up to 15 ml with complete medium. The contents of each Falcon tube are in each case filtered through a 70 μm Falcon filter insert and centrifuged at 1200 revolutions and room temperature for 10 minutes. The resulting pellet is in each case taken up in 250 μl of complete medium and the cell count is determined.
The number of cells in the suspension is adjusted to 3 times 10^5 per ml and in each case 150 μl of this suspension are added to one well of the cell culture plates coated as described above.
Subsequently, the cells are laden with 2 μM Fluo-4 and 0.01% by volume of Pluronic F127 (Molecular Probes Europe BV, Leiden, the Netherlands) in HBSS buffer (Hank's buffered saline solution, Gibco Invitrogen GmbH, Karlsruhe, Germany) at 37° C. for 30 min, washed 3× with HBSS buffer and, after a further incubation of 15 minutes, used in the FLIPR assay at room temperature for Ca^2+ measurement. The Ca^2+-dependent fluorescence is measured before and after addition of substances (λex=488 nm, λem=540 nm). The quantification is effected by the measurement of the highest fluorescence intensity (FC, fluorescence counts) over the time.

VR1 (human) = molecular target: T2, VR1 (human) (Homo sapiens, UniProt Q8NER1); assay: Functional study on vanilloid receptor (VR1), FLIPR Ca2+ assay in CHO K1 cells stably transfected with the VR1 gene; type: cell-based; settings: for inhibition at 10 µM / activation at 10 µM: CHO-K1, test compound 10 μM; for inhibition at 10 µM / VR1 (human) (% inhibition compared to 10 μM CP): 5 min incubation, then 100 nM capsaicin, compared to 10 μM CP; for activation at 10 µM / VR1 (human) (% stimulation compared to 10 μM CP): Ca2+ signal relative to 10 μM capsaicin (CP); for activation at 10 µM: read-out: VR1 (human) (% stimulation compared to 10 μM CP); for VR1 (human) (% inhibition compared to 10 μM CP) / VR1 (human) (% stimulation compared to 10 μM CP): test compound 10 μM; for pEC50: unit inferred
T2 construct: expressed in transfected cells; host or cells: CHO K1 cells (ECACC), stably transfected
From the text: The agonistic or antagonistic action of the substances to be tested on vanilloid receptor (VR1) can also be determined with the assay which follows. In this assay, the Ca^2+ current through the channel is quantified with the aid of a Ca^2+-sensitive dye (Fluo-4 type, Molecular Probes, Europe BV, Leiden, the Netherlands) in a fluorescent imaging plate reader (FLIPR, Molecular Devices, Sunnyvale, USA).
Chinese hamster ovary cells (CHO K1 cells, European Collection of Cell Cultures (ECACC) Great Britain) are transfected stably with the VR1 gene. For functional studies, these cells are plated out onto poly-D-lysine-coated black 96-well plates with a clear bottom (BD Biosciences, Heidelberg, Germany) in a density of 25 000 cells/well. The cells are incubated overnight at 37° C. and 5% CO2 in a culture medium (Ham's Nutrient Mixture F12, 10% by volume of FCS (fetal calf serum), 18 μg/ml of L-proline). The next day, the cells are incubated with Fluo-4 (Fluo-4 2 μM, Pluronic F127 0.01% by volume, Molecular Probes in HBSS (Hank's buffered saline solution), Gibco Invitrogen GmbH, Karlsruhe, Germany) at 37° C. for 30 minutes. Subsequently, the plates are washed 3 times with HBSS buffer and, after a further incubation of 15 minutes at room temperature, used for Ca^2+ measurement in FLIPR. The Ca^2+-dependent fluorescence is measured before and after addition of the substances to be studied (wavelength λex=488 nm, λem=540 nm). The quantification is effected by measuring the highest fluorescence intensity (FC, fluorescence counts) over the time.
The FLIPR protocol consists of 2 substance additions. First, the substances to be tested (10 μM) are pipetted onto the cells and the Ca current is compared with the control (capsaicin 10 μM) (% activation based on the Ca^2+ signal after addition of 10 μM capsaicin). After incubation for 5 minutes, 100 nM capsaicin is applied and the current of Ca^2+ is likewise determined.

T2 sequence (Q8NER1 whole entry): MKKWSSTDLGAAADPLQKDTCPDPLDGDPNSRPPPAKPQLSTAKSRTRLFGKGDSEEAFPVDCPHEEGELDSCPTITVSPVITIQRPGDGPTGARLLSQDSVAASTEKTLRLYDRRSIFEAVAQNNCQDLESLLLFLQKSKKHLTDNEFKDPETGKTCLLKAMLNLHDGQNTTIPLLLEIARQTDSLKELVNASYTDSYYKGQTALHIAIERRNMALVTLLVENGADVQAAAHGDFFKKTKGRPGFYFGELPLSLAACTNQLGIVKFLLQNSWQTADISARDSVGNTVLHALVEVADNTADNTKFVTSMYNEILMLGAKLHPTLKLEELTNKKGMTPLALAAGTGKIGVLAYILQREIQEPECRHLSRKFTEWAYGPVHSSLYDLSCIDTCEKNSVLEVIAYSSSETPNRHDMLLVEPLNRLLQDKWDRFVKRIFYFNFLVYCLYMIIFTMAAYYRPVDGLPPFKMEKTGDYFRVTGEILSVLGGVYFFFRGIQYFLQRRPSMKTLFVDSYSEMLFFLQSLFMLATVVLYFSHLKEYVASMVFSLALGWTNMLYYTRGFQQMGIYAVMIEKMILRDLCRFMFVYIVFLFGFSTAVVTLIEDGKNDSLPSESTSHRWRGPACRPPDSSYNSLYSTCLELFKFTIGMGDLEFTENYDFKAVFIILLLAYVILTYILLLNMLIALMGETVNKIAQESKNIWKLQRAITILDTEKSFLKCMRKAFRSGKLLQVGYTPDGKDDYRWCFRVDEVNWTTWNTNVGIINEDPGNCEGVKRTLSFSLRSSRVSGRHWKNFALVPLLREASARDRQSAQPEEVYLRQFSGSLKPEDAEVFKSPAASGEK
T1 sequence (O35433 whole entry): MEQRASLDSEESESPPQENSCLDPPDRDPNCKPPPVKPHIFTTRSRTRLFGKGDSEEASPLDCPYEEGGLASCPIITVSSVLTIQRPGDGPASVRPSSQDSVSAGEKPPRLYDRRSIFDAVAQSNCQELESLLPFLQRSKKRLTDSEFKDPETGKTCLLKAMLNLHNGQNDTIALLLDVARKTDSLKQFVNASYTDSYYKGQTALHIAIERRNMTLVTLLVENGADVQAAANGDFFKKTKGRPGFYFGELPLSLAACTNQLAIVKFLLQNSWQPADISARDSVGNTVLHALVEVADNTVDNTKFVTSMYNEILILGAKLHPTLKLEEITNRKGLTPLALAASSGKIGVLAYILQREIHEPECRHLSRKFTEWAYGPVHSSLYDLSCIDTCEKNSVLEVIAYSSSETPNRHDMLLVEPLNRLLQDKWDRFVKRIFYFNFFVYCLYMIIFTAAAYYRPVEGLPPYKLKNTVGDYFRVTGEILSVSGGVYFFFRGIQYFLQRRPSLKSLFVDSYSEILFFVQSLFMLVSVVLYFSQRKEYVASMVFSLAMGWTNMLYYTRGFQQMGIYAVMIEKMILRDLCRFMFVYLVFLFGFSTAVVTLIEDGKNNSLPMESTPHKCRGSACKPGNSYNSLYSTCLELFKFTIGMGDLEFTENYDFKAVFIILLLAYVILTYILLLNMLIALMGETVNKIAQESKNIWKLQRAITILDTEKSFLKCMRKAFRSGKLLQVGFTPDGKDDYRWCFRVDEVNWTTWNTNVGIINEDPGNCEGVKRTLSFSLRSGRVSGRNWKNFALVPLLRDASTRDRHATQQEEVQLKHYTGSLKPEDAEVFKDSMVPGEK

SMILES: O=C1N=C(N2CCOCC2)SC1=Cc1cccc(C(F)(F)F)c1 [Example 205, 2-morpholin-4-yl-5-(3-trifluoromethylbenzylidene)thiazol-4-one hydrobromide]
- inhibition at 10 µM [1]: 96.4%
- activation at 10 µM [1]: 79.6%
- inhibition at 10 µM (VR1 (human)): 103%
- activation at 10 µM (VR1 (human)): 68.2%

SMILES: CC(C)c1ccc(C=C2SC(N3CCOCC3)=NC2=O)cc1 [Example 135, 5-(4-isopropylbenzylidene)-2-morpholin-4-ylthiazol-4-one]
- VR1 (rat) (% inhibition compared to 10 μM CP) [1]: 87.60%
- VR1 (rat) (% stimulation compared to 10 μM CP) [1]: 79.68%
- VR1 (human) (% inhibition compared to 10 μM CP) (VR1 (human)): 84.29%
- VR1 (human) (% stimulation compared to 10 μM CP) (VR1 (human)): 85.02%

SMILES: CC(=CC=C1SC(N2CCOCC2)=NC1=O)c1ccc(C(C)(C)C)cc1 [Example 34, 5-[3-(4-tert-butylphenyl)but-2-enylidene]-2-morpholin-4-ylthiazol-4-one]
- inhibition at 10 µM [1]: 88%
- activation at 10 µM [1]: 101%
- inhibition at 10 µM (VR1 (human)): 89.3%
- activation at 10 µM (VR1 (human)): 111%

SMILES: O=C1N=C(N2CCOCC2)SC1=CC=CSc1ccccc1 [Example 12, 2-morpholin-4-yl-5-(3-phenylsulfanylallylidene)thiazol-4-one]
- inhibition at 10 µM [1]: 68.4%
- activation at 10 µM [1]: 54%
- inhibition at 10 µM (VR1 (human)): 54.3%
- activation at 10 µM (VR1 (human)): 55.4%

SMILES: CC(C)(C)c1ccc(C=C2SC(N3CCSCC3)=NC2=O)cc1 [Example 198, 5-(4-tert-butylbenzylidene)-2-thiomorpholin-4-ylthiazol-4-one hydrobromide]
- inhibition at 10 µM [1]: 97.6%
- activation at 10 µM [1]: 60.7%
- pEC50 [1]: 5.95
- inhibition at 10 µM (VR1 (human)): 76.7%
- activation at 10 µM (VR1 (human)): 54.3%
- pEC50 (VR1 (human)): 5.99

SMILES: Cc1ccc(C=C2SC(N3CCSCC3)=NC2=O)cc1 [Example 14, 5-(4-methylbenzylidene)-2-thiomorpholin-4-ylthiazol-4-one hydrobromide]
- inhibition at 10 µM [1]: 82.1%
- activation at 10 µM [1]: 108%
- pEC50 [1]: 6.02
- inhibition at 10 µM (VR1 (human)): 89.4%
- activation at 10 µM (VR1 (human)): 107%
- pEC50 (VR1 (human)): 5.29

SMILES: O=C1N=C(N2CCOCC2)SC1=Cc1ccc(OS(=O)(=O)c2ccccc2)cc1 [Example 234, benzenesulfonic acid 4-(2-morpholin-4-yl-4-oxo-4H-thiazol-5-ylidenemethyl)phenyl ester]
- inhibition at 10 µM [1]: 98.1%
- activation at 10 µM [1]: 57.9%
- inhibition at 10 µM (VR1 (human)): 27.8%
- activation at 10 µM (VR1 (human)): 46.1%

SMILES: COc1cc(C=C2SC(N3CCSCC3)=NC2=O)ccc1O [Example 39, 5-(4-hydroxy-3-methoxybenzylidene)-2-thiomorpholin-4-ylthiazol-4-one]
- inhibition at 10 µM [1]: 51%
- activation at 10 µM [1]: 31.2%
- inhibition at 10 µM (VR1 (human)): 23.7%
- activation at 10 µM (VR1 (human)): 18.9%

SMILES: O=C1N=C(N2CCSCC2)SC1=Cc1cccc(C(=O)N2CCN(c3ncccc3Cl)CC2)c1 [Example 88, 5-{3-[4-(3-chloropyridin-2-yl)piperazine-1-carbonyl]benzylidene}-2-thiomorpholin-4-ylthiazol-4-one]
- inhibition at 10 µM [1]: 90.1%
- activation at 10 µM [1]: 72.8%
- inhibition at 10 µM (VR1 (human)): 71.1%
- activation at 10 µM (VR1 (human)): 61.4%

SMILES: Br.CC(C)c1ccc(C=C2SC(N3CCOCC3)=NC2=O)cc1 [Example 179, 5-(4-isopropylbenzylidene)-2-morpholin-4-ylthiazol-4-one hydrobromide]
- VR1 (rat) (% inhibition compared to 10 μM CP) [1]: 38.36%
- VR1 (rat) (% stimulation compared to 10 μM CP) [1]: 41.89%
- VR1 (human) (% inhibition compared to 10 μM CP) (VR1 (human)): 30.72%
- VR1 (human) (% stimulation compared to 10 μM CP) (VR1 (human)): 5.04%

SMILES: Cc1ccc(N2CCN(C3=NC(=O)C(=CC=Cc4ccccc4)S3)CC2)nn1 [Example 161, 2-[4-(6-methylpyridazin-3-yl)piperazin-1-yl]-5-(3-phenylallylidene)thiazol-4-one]
- inhibition at 10 µM [1]: 17%
- activation at 10 µM [1]: 2.5%
- inhibition at 10 µM (VR1 (human)): 47.2%
- activation at 10 µM (VR1 (human)): 2.43%

SMILES: O=C1N=C(N2CCCCC2)SC1=CC=Cc1ccccc1 [Example 191, 5-(3-phenylallylidene)-2-piperidin-1-ylthiazol-4-one hydrobromide]
- inhibition at 10 µM [1]: 17.6%
- activation at 10 µM [1]: -0.17%
- pEC50 [1]: < 4.60
- inhibition at 10 µM (VR1 (human)): 8.04%
- activation at 10 µM (VR1 (human)): 15.8%
- pEC50 (VR1 (human)): < 4.30

SMILES: O=C1N=C(N2CCOCC2)SC1=Cc1ccc(OC(F)(F)F)cc1 [Example 36, 2-morpholin-4-yl-5-(4-trifluoromethoxybenzylidene)thiazol-4-one]
- inhibition at 10 µM [1]: 101%
- activation at 10 µM [1]: 67.7%
- inhibition at 10 µM (VR1 (human)): 68.8%
- activation at 10 µM (VR1 (human)): 47.4%

SMILES: O=C1N=C(N2CCSCC2)SC1=Cc1ccccc1 [Example 42, 5-benzylidene-2-thiomorpholin-4-ylthiazol-4-one]
- inhibition at 10 µM [1]: 93.1%
- activation at 10 µM [1]: 98.3%
- inhibition at 10 µM (VR1 (human)): 50.2%
- activation at 10 µM (VR1 (human)): 49.7%

SMILES: Cc1ccc(C=C2SC(N3CCCC3)=NC2=O)cc1 [Example 215, 5-(4-methylbenzylidene)-2-pyrrolidin-1-ylthiazol-4-one]
- inhibition at 10 µM [1]: 4.47%
- activation at 10 µM [1]: 2.14%
- inhibition at 10 µM (VR1 (human)): 49.8%
- activation at 10 µM (VR1 (human)): 3.64%

SMILES: Cc1ccc(C=CC=C2SC(N3CCOCC3)=NC2=O)cc1 [Example 19, 2-morpholin-4-yl-5-(3-p-tolylallylidene)thiazol-4-one]
- inhibition at 10 µM [1]: 31.4%
- activation at 10 µM [1]: 11.7%
- pEC50 [1]: 5.11
- inhibition at 10 µM (VR1 (human)): 10.8%
- activation at 10 µM (VR1 (human)): 8.82%
- pEC50 (VR1 (human)): 4.89
